From publication PMC11206759, “Synthesis, Docking, and DFT Studies on Novel Schiff Base Sulfonamide Analogues as Selective COX-1 Inhibitors with Anti-Platelet Aggregation Activity” (Pharmaceuticals, 2024)
pIC50: −log10 of the molar value. Where two headings read alike, the source gives them in different places.

Legend:
[1] = tested on: platelet aggregation induced by ADP; assay: Anti-platelet aggregation assay, ADP-induced; format: cell-based; details: for pIC50 / ADP Inhibition Rate (%) ± SD: platelet aggregation induced by 10 μM ADP; for pIC50: 4 working concentrations; for ADP Inhibition Rate (%) ± SD: mean ± SD of three values
Experimental: (§1) Furthermore, the target compounds 10–13 were capable of inhibiting the platelet aggregation induced by 10 μM ADP and 0.33 U/mL collagen.
(§2) The anti-platelet aggregation assays were performed according to the method reported by XIE et al. (Supplementary Materials).

[2] = tested on: platelet aggregation induced by collagen; assay: Anti-platelet aggregation assay, collagen-induced; format: cell-based; details: for pIC50 / Collagen Inhibition Rate (%) ± SD: platelet aggregation induced by 0.33 U/mL collagen; for pIC50: 4 working concentrations; for Collagen Inhibition Rate (%) ± SD: mean ± SD of three values
Experimental: as §1, §2

human recombinant COX-1 = assay: Cyclooxygenase inhibition assay (EIA kit), COX-1; format: biochemical; details: COX-1 over COX-2
human recombinant COX-2 = target: T1, human recombinant COX-2 (Homo sapiens, UniProt P35354); assay: Cyclooxygenase inhibition assay (EIA kit), COX-2; format: biochemical; details: human recombinant COX-2, EIA kit
T1 construct: purchased Cayman Chemical 560131
T1 sequence (P35354 18-604): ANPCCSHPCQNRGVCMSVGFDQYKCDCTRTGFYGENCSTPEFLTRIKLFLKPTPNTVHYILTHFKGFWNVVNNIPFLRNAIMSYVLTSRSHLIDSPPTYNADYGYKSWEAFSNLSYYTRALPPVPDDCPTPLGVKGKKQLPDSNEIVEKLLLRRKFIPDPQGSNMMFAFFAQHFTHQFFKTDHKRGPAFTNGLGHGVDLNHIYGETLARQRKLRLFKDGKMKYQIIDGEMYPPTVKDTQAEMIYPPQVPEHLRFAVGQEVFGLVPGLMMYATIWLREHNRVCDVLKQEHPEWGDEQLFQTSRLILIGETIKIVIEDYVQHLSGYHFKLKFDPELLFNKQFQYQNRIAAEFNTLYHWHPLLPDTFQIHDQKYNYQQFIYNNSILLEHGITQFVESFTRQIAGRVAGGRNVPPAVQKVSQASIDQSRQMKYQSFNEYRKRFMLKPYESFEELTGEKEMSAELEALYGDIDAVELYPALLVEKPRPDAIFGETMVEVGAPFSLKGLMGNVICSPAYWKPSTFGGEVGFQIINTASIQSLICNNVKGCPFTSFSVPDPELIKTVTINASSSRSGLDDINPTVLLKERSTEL

COX-2 = details: cited from earlier work
COX-1 = details: cited from earlier work; for pIC50: read-out: IC50 COX-1; for selectivity index: COX-1 selectivity

O=S(=O)(Nc1ncccn1)c1ccc(/N=C/c2ccco2)cc1 [Compound 10, (E)-4-(Furan-2-ylmethyleneamino)-N-(pyrimidin-2-yl)benzenesulfonamide]
pIC50 [1]: 6.43
ADP Inhibition Rate (%) ± SD [1]: 78.36 ± 1.36%
pIC50 [2]: 6.21
Collagen Inhibition Rate (%) ± SD [2]: 89.36 ± 1.23%
COX1 Selectivity Index (human recombinant COX-1): 5.86
IC50 (human recombinant COX-2): 11.3 µM

O=S(=O)(Nc1cnc2ccccc2n1)c1ccc(/N=C/c2ccccc2O)cc1 [Compound 13, (E)-4-(2-Hydroxybenzylideneamino)-N-(quinoxalin-2-yl)benzenesulfonamide]
ADP Inhibition Rate (%) ± SD [1]: 46.32 ± 1.32%
Collagen Inhibition Rate (%) ± SD [2]: 45.36 ± 1.56%
COX1 Selectivity Index (human recombinant COX-1): 2.87
IC50 (human recombinant COX-2): 9.26 µM

COc1ccc(-n2cc(-c3ccco3)c(C(F)(F)F)n2)cc1 [XI]
pIC50 (COX-2; Figure 1): < 4.30
pIC50 (COX-1): 5.47

O=S(=O)(Nc1ncccn1)c1ccc(/N=C/c2ccccc2O)cc1 [Compound 11, (E)-4-(2-Hydroxybenzylideneamino)-N-(pyrimidin-2-yl)benzenesulfonamide]
pIC50 [1]: 6.60
ADP Inhibition Rate (%) ± SD [1]: 84.36 ± 1.64%
pIC50 [2]: 5.99
Collagen Inhibition Rate (%) ± SD [2]: 76.35 ± 1.34%
COX1 Selectivity Index (human recombinant COX-1): 3.16
IC50 (human recombinant COX-2): 15.2 µM

NS(=O)(=O)c1ccc(-c2nccnc2-c2ccc(F)cc2)cc1 [V]
pIC50 (COX-2; previous examples of Figure 1): 5.97
pIC50 (COX-1; previous examples of Figure 1): < 3.52

COc1ccc(-c2nc3ccccc3nc2-c2ccc(S(C)(=O)=O)cc2)cc1 [III]
pIC50 (COX-2; previous examples of Figure 1): 6.40
pIC50 (COX-1; previous examples of Figure 1): < 4.52

NS(=O)(=O)c1ccc(-c2nc(Cl)cc(NCc3cccs3)n2)cc1 [VI]
SI (COX-2; COX-2 selectivity, Figure 1): > 81,300
pIC50 (COX-2; previous examples of Figure 1): 8.92

CC(=O)Oc1ccccc1C(=O)O [Aspirin]
pIC50 [1]: 6.31
ADP Inhibition Rate (%) ± SD [1]: 92.36 ± 1.5%
pIC50 [2]: 6.29
Collagen Inhibition Rate (%) ± SD [2]: 64.3 ± 1.38%

Nc1onc(-c2ccc(Cl)o2)c1-c1ccccc1 [X]
pIC50 (COX-2; Figure 1): < 4.30
pIC50 (COX-1): 5.96

Oc1ccc(/C=C/c2cc(O)cc(O)c2)cc1 [Compound II]
selectivity index (COX-1): around 200 folds
pIC50 (COX-1): 4.82

O=S(=O)(Nc1cnc2ccccc2n1)c1ccc(/N=C/c2ccco2)cc1 [Compound 12, (E)-4-(Furan-2-ylmethyleneamino)-N-(quinoxalin-2-yl)benzenesulfonamide]
reactivity compared to aspirin, ADP ([1]; fold versus aspirin): 4.45 folds
pIC50 [1]: 6.96
ADP Inhibition Rate (%) ± SD [1]: 98.1 ± 1.68%
activity compared to aspirin, collagen ([2]; fold versus aspirin): 4.25 folds
pIC50 [2]: 6.92
Collagen Inhibition Rate (%) ± SD [2]: 95.9 ± 1.39%
COX1 Selectivity Index (human recombinant COX-1): 18.69
IC50 (human recombinant COX-2): 13.3 µM

COc1ccc(-c2ncc(C)nc2-c2ccc(S(N)(=O)=O)cc2)cc1 [IV]
pIC50 (COX-2; previous examples of Figure 1): 6.34
pIC50 (COX-1; previous examples of Figure 1): 4.01

Cc1cnc2c(-c3ccc(F)cc3)c(-c3ccc(S(C)(=O)=O)cc3)nn2c1C [VIII]
pIC50 (COX-2): 6.22
pIC50 (COX-1): 4.89

Nc1ccc(S(=O)(=O)Nc2ccc(Cl)cc2)cc1 [Compound I]
selectivity index (COX-1): approximately 100 folds
pIC50 (COX-1): 4.92

CS(=O)(=O)c1ccc(-c2nc(NCc3ccc(F)cc3)cc(C(F)(F)F)n2)cc1 [IX]
pIC50 (COX-2; previous examples of Figure 1): 8.15
COX-1 activity (COX-1; previous examples of Figure 1): not active
